Data reported in patent US20250034531A1, “METHOD FOR PRODUCING STEM CELLS” (priority 2021, published 2025).

Experiments:
[1] = tested on: Human peripheral blood mononuclear cells; conditions: 10 nmol/L in RPMI 1640 medium with IL-2 added daily; KLF4, OCT3/4, SOX2, c-MYC by CytoTune-iPS 2.0; 14th day; FIG. 2
Experimental: Human peripheral blood mononuclear cells were put into the culture medium, and a culture medium containing about 1×10^6 monocytes was put into a 24-well plate (1st day). 1 μL of 20 μg/mL IL-2 was added to the culture medium every day. On the third day, the culture medium containing the cells was recovered from the plates, the culture medium was centrifugally separated, and the supernatant was removed. Then, 2 mL of a new HMBPP-containing medium was added to the cells, and 1 mL was put into each of two wells of a 24-well plate.
On the 6th day, the culture medium containing the cells was recovered from the plates, the culture medium was centrifugally separated, and the supernatant was removed. Then, an HMBPP-containing medium was added to the cells, and a culture medium containing 2×10^4 monocytes was put into a 96-well plate. KLF4, OCT3/4, SOX2, and c-MYC were introduced into the cells by using CytoTune-iPS 2.0 (Thermo Fisher Scientific, Inc.). The multiplicity of infection (MOI) was adjusted to be 20 to 30.
On the 7th day, the culture medium containing the cells recovered from the 96-well plate were added with a fresh HMBPP-containing medium and put into a 6-well plate. On the 8th, 10th, and 12th days, a stem cell culture medium (Stem Fit, Ajinomoto Co., Inc.) was added thereto, and thereafter, the culture medium was replaced using the stem cell culture medium.

Vγ9 gene = conditions: genomic DNA of the iPS cells; γδT cells as positive control; FIG. 4
Experimental: iPS cells were induced in the same manner as in Example 1, except that HMBPP in the HMBPP-containing medium was changed to 5 μL of zoledronic acid (Zol, Sigma-Aldrich Co., LLC).

**Q.** How did the “colonies of iPS cells formed” value [1] turn out when `C/C(=C\COP(=O)(O)OP(=O)(O)O)CO` [HMBPP, (E)-4-hydroxy-3-methyl-but-2-enyl pyrophosphate] was run?
**A.** a plurality of colonies of iPS cells has been formed

**Q.** And the “rearranged Vγ9 gene having the J1/J2 gene in the established iPS cells” value (Vγ9 gene)?
**A.** have a Vγ9 gene that has undergone rearrangement
